Records with an inconclusive call do not appear.
System: H4 cells, SNCA 5'UTR luciferase reporter translation
Experiment: alpha-synuclein stem-loop luciferase translation blockers – luminescence, confirmation (AID 1988)

SMILES | EC50 [µM]
COc1ccc(O)c2c(=O)c3c(OC)cc4c(c3oc12)C1C=COC1O4 (stereo not drawn) | < 0.1
C=C(C=O)CC1CC(O)[C@]2(C)OC3CC4OC5C[C@]6(C)O[C@]7(C)CCC8OC9C[C@]%10(C)OC%11C(C)=CC(=O)OC%11CC%10OC9C[C@@H](C)C8OC7CC6O[C@]5(C)CC5OC5C4OC3CC2O1 (stereo partly drawn) | 7.35
C#CCOCCOCCOCCNc1nc(N2CCN(C(=O)CCCCCCCCCCNC(=O)[C@H](CO)n3cc(CCCSC)nn3)CC2)nc(N2CCN(C(=O)CCCCCCCCCCNC(=O)[C@H](CCCCN)n3cc(C[C@@H](C)CC)nn3)CC2)n1 | 7.11

From PubChem BioAssay AID1988 (Broad Institute, 2009)
